In US20210009542A1 (Calico Life Sciences LLC, priority 2018, published 2021):
pIC50: −log10 of the molar value. Where two headings read alike, the source gives them in different places.

How the values were obtained:
[1] = tested on: B16F10 mouse melanoma cells; test: B16F10 IFNγ-induced cellular growth inhibition assay; type: cell-based; settings: Mus musculus, B16-F10, 33 μM compound
How it was run: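 B16F10 cells (500/well, DMEM + 10% FBS) dosed in triplicate at 100 μM to 0.001 μM (0.1% DMSO) with or without 0.5 ng/mL final mouse IFNγ. Confluence imaged every 6 h for 5 days; % growth inhibition calculated versus DMSO/with-IFNγ control once DMSO/no-IFNγ wells exceeded 95% confluence.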

[2] = molecular target: T1, His tagged PTPN2 (TC45) protein (Homo sapiens, UniProt P17706); test: Mobility shift assay (MSA) for potency of PTPN2 inhibitors; type: biochemical; settings: read-out: PTPN2 MSA IC50
T1 construct: made in house
T1 sequence (P17706 with tags, fused parts or gaps isoform P17706-2): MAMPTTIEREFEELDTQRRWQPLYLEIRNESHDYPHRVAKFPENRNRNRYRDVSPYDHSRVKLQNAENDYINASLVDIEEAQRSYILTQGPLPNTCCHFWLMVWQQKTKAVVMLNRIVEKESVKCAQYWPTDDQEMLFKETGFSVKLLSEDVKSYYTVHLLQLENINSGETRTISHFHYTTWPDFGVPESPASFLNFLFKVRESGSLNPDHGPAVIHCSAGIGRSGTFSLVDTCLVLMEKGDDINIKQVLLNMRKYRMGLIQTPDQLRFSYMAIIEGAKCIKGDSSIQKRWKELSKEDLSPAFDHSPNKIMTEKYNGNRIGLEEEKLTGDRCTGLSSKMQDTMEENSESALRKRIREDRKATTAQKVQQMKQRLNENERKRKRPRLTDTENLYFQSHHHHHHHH
How it was run: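 His-tagged PTPN2 TC45 (0.5 nM) was preincubated with compound (12-point, 1:3) for 10 min at room temperature in 50 mM HEPES pH 7.5, 1 mM EGTA, 10 mM EDTA, 0.01% Tween 20, 2 mM DTT. OG488-labelled phospho-insulin-receptor peptide ([…]) was then added for 10 min. After quenching, dephosphorylation was measured by microfluidic mobility shift and IC50 derived from % inhibition.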

[3] = +0.5 ng/mL IFNγ, relative to DMSO control, read-out: % B16F10 growth inhibition (+0.5 ng/mL IFNγ) @ 33 μM
[4] = no IFNγ, read-out: % B16F10 growth inhibition (no IFNγ) @ 33 μM

| SMILES | inhibition at 33 µM [1, 3] | inhibition at 33 µM [1, 4] | pIC50 [2] |
| --- | --- | --- | --- |
| O=C1CN(c2c(O)cc3ccc(OCCF)cc3c2F)S(=O)(=O)N1 [Compound 198, 5-[1-fluoro-7-(2-fluoroethoxy)-3-hydroxynaphthalen-2-yl]-1λ^6,2,5-thiadiazolidine-1,1,3-trione] | 60 to 90% | < 25% | 8.00 to 9.00 |
| CCOc1ccc2cc(O)c(N3CC(=O)NS3(=O)=O)c(F)c2c1 [Compound 301, 5-(7-ethoxy-1-fluoro-3-hydroxynaphthalen-2-yl)-1λ^6,2,5-thiadiazolidine-1,1,3-trione] | 60 to 90% | < 25% | 8.00 to 9.00 |
| CC(C)(CC#N)CCOc1ccc2cc(O)c(N3CC(=O)NS3(=O)=O)c(F)c2c1 [Compound 115, 5-{[8-fluoro-6-hydroxy-7-(1,1,4-trioxo-1λ^6,2,5-thiadiazolidin-2-yl)naphthalen-2-yl]oxy}-3,3-dimethylpentanenitrile] | 60 to 90% | < 25% | > 9.00 |
| O=C1CN(c2c(O)cc3ccc(O)cc3c2F)S(=O)(=O)N1 [Compound 276, 5-(1-fluoro-3,7-dihydroxynaphthalen-2-yl)-1λ^6,2,5-thiadiazolidine-1,1,3-trione] | 25 to 59% | < 25% | 8.00 to 9.00 |
| O=C1CN(c2c(O)cc3ccc(OCC4CCNCC4)cc3c2F)S(=O)(=O)N1 [Compound 114, 5-{1-fluoro-3-hydroxy-7-[(piperidin-4-yl)methoxy]naphthalen-2-yl}-1λ^6,2,5-thiadiazolidine-1,1,3-trione] | 60 to 90% | < 25% | 8.00 to 9.00 |
| O=C1CN(c2c(O)cc3ccc(C4CN(S(=O)(=O)C5CC5)C4)cc3c2F)S(=O)(=O)N1 [Compound 206, 5-{7-[1-(cyclopropanesulfonyl)azetidin-3-yl]-1-fluoro-3-hydroxynaphthalen-2-yl}-1λ^6,2,5-thiadiazolidine-1,1,3-trione] | 60 to 90% | < 25% | 8.00 to 9.00 |
| CC(C)(C)OCCOc1ccc2cc(O)c(N3CC(=O)NS3(=O)=O)c(F)c2c1 [Compound 217, 5-[7-(2-tert-butoxyethoxy)-1-fluoro-3-hydroxynaphthalen-2-yl]-1λ^6,2,5-thiadiazolidine-1,1,3-trione] | 25 to 59% | < 25% | 8.00 to 9.00 |
| O=C1CN(c2c(O)cc3ccc(C4=CCN(S(=O)(=O)C5CC5)CC4)cc3c2F)S(=O)(=O)N1 [Compound 297, 5-{7-[1-(cyclopropanesulfonyl)-1,2,3,6-tetrahydropyridin-4-yl]-1-fluoro-3-hydroxynaphthalen-2-yl}-1λ^6,2,5-thiadiazolidine-1,1,3-trione] | 25 to 59% | < 25% | 8.00 to 9.00 |
| O=C1CN(c2c(O)cc3ccc(OCCCC(F)(F)F)cc3c2F)S(=O)(=O)N1 [Compound 158, 5-[1-fluoro-3-hydroxy-7-(4,4,4-trifluorobutoxy)naphthalen-2-yl]-1λ^6,2,5-thiadiazolidine-1,1,3-trione] | 60 to 90% | < 25% | 8.00 to 9.00 |
| O=C1CN(c2c(O)cc3ccc(/C=C/C4CC4)cc3c2F)S(=O)(=O)N1 [Compound 239, 5-{7-[(E)-2-cyclopropylethenyl]-1-fluoro-3-hydroxynaphthalen-2-yl}-1λ^6,2,5-thiadiazolidine-1,1,3-trione] | 60 to 90% | < 25% | 8.00 to 9.00 |
| COc1ccc2c(Br)c(O)c(N3CC(=O)NS3(=O)=O)c(F)c2c1 [Compound 243, 5-(4-bromo-1-fluoro-3-hydroxy-7-methoxynaphthalen-2-yl)-1λ^6,2,5-thiadiazolidine-1,1,3-trione] | 25 to 59% | < 25% | 7.00 to 8.00 |
| O=C1CN(c2c(O)cc3ccc(NCCN4CCC4)cc3c2F)S(=O)(=O)N1 [Compound 177, 5-(7-{[2-(azetidin-1-yl)ethyl]amino}-1-fluoro-3-hydroxynaphthalen-2-yl)-1λ^6,2,5-thiadiazolidine-1,1,3-trione] | > 90% | < 25% | 8.00 to 9.00 |
| CCN(CC)C(=O)COc1ccc2cc(O)c(N3CC(=O)NS3(=O)=O)c(F)c2c1 [Compound 282, N,N-diethyl-2-{[8-fluoro-6-hydroxy-7-(1,1,4-trioxo-1λ^6,2,5-thiadiazolidin-2-yl)naphthalen-2-yl]oxy}acetamide] | 25 to 59% | < 25% | 8.00 to 9.00 |
| CC(C)CS(=O)(=O)N1CC=C(c2ccc3cc(O)c(N4CC(=O)NS4(=O)=O)c(F)c3c2)C1 [Compound 300, 5-{1-fluoro-3-hydroxy-7-[1-(2-methylpropane-1-sulfonyl)-2,5-dihydro-1H-pyrrol-3-yl]naphthalen-2-yl}-1λ^6,2,5-thiadiazolidine-1,1,3-trione] | 60 to 90% | < 25% | > 9.00 |
| Nc1ccccc1CS(=O)(=O)N1CC=C(c2ccc3cc(O)c(N4CC(=O)NS4(=O)=O)c(F)c3c2)C1 [Compound 195, 5-(7-{1-[(2-aminophenyl)methanesulfonyl]-2,5-dihydro-1H-pyrrol-3-yl}-1-fluoro-3-hydroxynaphthalen-2-yl)-1λ^6,2,5-thiadiazolidine-1,1,3-trione] | 60 to 90% | < 25% | > 9.00 |
| O=C1CN(c2c(O)cc3ccc(-c4cnn(CC5CC5)c4)cc3c2F)S(=O)(=O)N1 [Compound 132, 5-{7-[1-(cyclopropylmethyl)-1H-pyrazol-4-yl]-1-fluoro-3-hydroxynaphthalen-2-yl}-1λ^6,2,5-thiadiazolidine-1,1,3-trione] | 60 to 90% | < 25% | > 9.00 |
| O=C1CN(c2c(O)cc3ccc(C4=CCN(CC5CC5)C4)cc3c2F)S(=O)(=O)N1 [Compound 242, 5-{7-[1-(cyclopropylmethyl)-2,5-dihydro-1H-pyrrol-3-yl]-1-fluoro-3-hydroxynaphthalen-2-yl}-1λ^6,2,5-thiadiazolidine-1,1,3-trione] | 60 to 90% | < 25% | 8.00 to 9.00 |
| O=C1CN(c2c(O)cc3ccc(OCC(=O)N4CCCC4)cc3c2F)S(=O)(=O)N1 [Compound 283, 5-{1-fluoro-3-hydroxy-7-[2-oxo-2-(pyrrolidin-1-yl)ethoxy]naphthalen-2-yl}-1λ^6,2,5-thiadiazolidine-1,1,3-trione] | 25 to 59% | < 25% | 8.00 to 9.00 |
| O=C1CN(c2c(O)cc3ccc(C(F)F)cc3c2F)S(=O)(=O)N1 [Compound 167, 5-[7-(difluoromethyl)-1-fluoro-3-hydroxynaphthalen-2-yl]-1λ^6,2,5-thiadiazolidine-1,1,3-trione] | 60 to 90% | < 25% | 7.00 to 8.00 |
| N#CCOc1ccc2cc(O)c(N3CC(=O)NS3(=O)=O)c(F)c2c1 [Compound 203, {[8-fluoro-6-hydroxy-7-(1,1,4-trioxo-1λ^6,2,5-thiadiazolidin-2-yl)naphthalen-2-yl]oxy}acetonitrile] | 60 to 90% | < 25% | 8.00 to 9.00 |
| O=C1CN(c2c(O)cc3ccc(OCCN4CCOCC4)cc3c2F)S(=O)(=O)N1 [Compound 100, 5-{1-fluoro-3-hydroxy-7-[2-(morpholin-4-yl)ethoxy]naphthalen-2-yl}-1λ^6,2,5-thiadiazolidine-1,1,3-trione] | > 90% | < 25% | 8.00 to 9.00 |
| COCCOc1ccc2cc(O)c(N3CC(=O)NS3(=O)=O)c(F)c2c1 [Compound 119, 5-[1-fluoro-3-hydroxy-7-(2-methoxyethoxy)naphthalen-2-yl]-1λ^6,2,5-thiadiazolidine-1,1,3-trione] | 60 to 90% | < 25% | 8.00 to 9.00 |
| [2H]C([2H])([2H])Oc1ccc2cc(O)c(N3CC(=O)NS3(=O)=O)c(F)c2c1 [Compound 118, 5-{1-fluoro-3-hydroxy-7-[(^2H3)methyloxy]naphthalen-2-yl}-1λ^6,2,5-thiadiazolidine-1,1,3-trione] | 60 to 90% | < 25% | 8.00 to 9.00 |
